According to paper PMC5703966, “Systemic clearance and brain distribution of carbazole-based cyanine compounds as Alzheimer’s disease drug candidates” (Scientific Reports, 2017):

Legend:
in vitro = conditions: human, Caco-2
[1] = Plasma binding by RED device; assay type: in vitro ADME, mouse; conditions: mouse plasma, RED device, 4 h, 37 °C; note: tested at 0.4 µM
Method: (§1) Nonspecific binding in plasma (f u, plasma), microsomes (f u, mic) and hepatocyte (f u, hep) were determined using the method seen in supplemental information (Supplemental Methods). […]
(§2) All validation compounds were incubated at 37 °C over 4 h, and in triplicate. For […]
(§3) plasma stability, 10 mM DMSO solutions of SLM and SLOH were diluted to 40 µM (10% DMSO). Plasma […]
(§4) shaking water bath (60 oscillations/min approx.). The assay was started by addition of 6 µL aliquots to […]
(§5) the plasma (final DMSO incubation concentration 0.1%). […]
(§6) MS/MS. Natural logarithm of peak area ratios (compound peak area normalized by IS peak area) were plotted against time and half-life calculated. […]
(§7) placed into the sample chamber (indicated by the red ring) with 400 µL of PBS into the adjacent chamber.
(§8) The plate was sealed with a self-adhesive lid and incubated at 37 °C on an orbital shaker (1.5 g approx.) for 4 h. Aliquots (100 µL) were removed from each side of the insert, and analyzed after protein precipitation using 4 folds acetonitrile (ACN) containing berberine chloride as internal standard (IS) by LC-MS/MS (Analytical me thod seen below). The experimental procedure outlined in the Thermo Scientific RED device systems brochure was adopted in the present study . […]

[2] = Plasma binding by RED device; assay type: in vitro ADME, human; conditions: human plasma, RED device, 4 h, 37 °C; note: tested at 0.4 µM
Method: as §1, §2, §3, §4, §5, §6, §7, §8

Hepatocyte stability = assay type: in vitro ADME; conditions: ICR/CD-1, hepatocytes (cryopreserved, suspension); mouse, 1 μM input, positive controls; read-out: Hepatocytes Clint, app
CYP1A2 = target: T1, CYP1A2 (Homo sapiens, UniProt P05177); conditions: hepatocytes
T1 sequence (P05177 1-516): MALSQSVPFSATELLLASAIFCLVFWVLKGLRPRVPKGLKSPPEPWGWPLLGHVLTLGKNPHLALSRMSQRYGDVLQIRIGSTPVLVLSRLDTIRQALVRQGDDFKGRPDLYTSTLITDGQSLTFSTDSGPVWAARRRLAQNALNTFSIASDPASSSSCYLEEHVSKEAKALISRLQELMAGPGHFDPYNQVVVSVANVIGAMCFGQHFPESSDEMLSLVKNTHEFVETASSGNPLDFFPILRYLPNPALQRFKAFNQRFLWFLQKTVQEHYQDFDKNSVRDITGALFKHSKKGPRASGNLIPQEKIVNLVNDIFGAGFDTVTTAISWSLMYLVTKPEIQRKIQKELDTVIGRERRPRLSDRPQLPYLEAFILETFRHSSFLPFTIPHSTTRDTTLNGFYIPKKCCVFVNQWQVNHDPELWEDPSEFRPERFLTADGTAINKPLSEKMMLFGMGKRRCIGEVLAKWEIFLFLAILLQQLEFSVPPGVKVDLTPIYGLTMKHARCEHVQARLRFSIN
Method: The samples were centrifuged at approximately 1,900 g for 10 mins before LC-MS/MS analysis.
The C YP3A4 and CYP1A2 activities in human hepatocytes were assayed by testosterone 6β-

OATP1A2 = target: T2, OATP1A2 (Homo sapiens, UniProt P46721); assay: OATP substrate identification, uptake in stably transfected HEK293 cells
T2 sequence (P46721 1-670): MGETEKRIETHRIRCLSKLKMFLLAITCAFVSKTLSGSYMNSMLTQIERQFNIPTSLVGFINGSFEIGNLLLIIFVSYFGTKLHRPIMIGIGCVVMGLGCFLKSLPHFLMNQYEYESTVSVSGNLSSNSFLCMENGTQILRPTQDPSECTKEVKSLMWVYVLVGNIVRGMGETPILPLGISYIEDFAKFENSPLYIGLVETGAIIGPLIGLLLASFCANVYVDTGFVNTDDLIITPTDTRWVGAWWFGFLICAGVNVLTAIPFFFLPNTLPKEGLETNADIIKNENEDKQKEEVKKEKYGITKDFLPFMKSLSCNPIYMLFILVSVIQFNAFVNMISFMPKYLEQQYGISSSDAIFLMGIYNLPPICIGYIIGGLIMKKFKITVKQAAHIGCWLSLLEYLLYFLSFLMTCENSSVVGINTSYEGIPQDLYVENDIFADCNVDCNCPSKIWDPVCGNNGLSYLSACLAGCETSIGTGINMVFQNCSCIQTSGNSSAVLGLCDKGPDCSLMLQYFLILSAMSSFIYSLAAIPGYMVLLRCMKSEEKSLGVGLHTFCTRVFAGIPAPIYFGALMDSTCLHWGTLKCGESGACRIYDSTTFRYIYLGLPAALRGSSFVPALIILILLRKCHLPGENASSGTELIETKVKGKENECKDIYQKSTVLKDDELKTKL
Method: (§9) Daily changes of medium were performed and on the second day after seeding using medium containing 10 mM sodium butyrate.
(§10) Stably transfected HEK cells and control vector-transfected HEK293 cells were first washed (3 × 1 mL) with prewarmed HBSS (pH 7.4) and then were incubated with 250 μL of HBSS containing compounds at concentrations of 1 and 10 μM. Cells were incubated for 10 mins at 37 °C for all experiments. After incubation, uptake was stopped by aspirating the incubation solution and washing each well 3 times with 200 μL of ice-old HBSS. The cells were lysed in 150 μL of 1 M NaOH for 30 mins, and then neutralized by adding equal volumes of 1 M HCl.
(§11) The following equations (3 and 4) were used to calculate the uptake rates (U, pmol/mg/min) and the OATP1B1, OATP1B3, OATP2B1 and OATP1A2 uptake ratio (UR):3 U=Clysate/P×T 4 UR=UOATP1B1/1B3/2B1/1A2/UHEK293−MOCK where C lysate is the compound concentration in cell lysates. P is the protein concentration in cell lysates. T is the incubation time. U OATP1B1/1B3/2B1/1A2 is the uptake rate obtained in HEK293 stably transfected OATP1B1, OATP1B3, OATP2B1 or OATP1A2 transportation. U HEK293-MOCK is the uptake rate obtained in control vector-transfected HEK293 transportation.

OATP2B1 = target: T3, OATP2B1 (Homo sapiens, UniProt O94956); assay: as above; conditions: positive control
T3 sequence (O94956 1-709): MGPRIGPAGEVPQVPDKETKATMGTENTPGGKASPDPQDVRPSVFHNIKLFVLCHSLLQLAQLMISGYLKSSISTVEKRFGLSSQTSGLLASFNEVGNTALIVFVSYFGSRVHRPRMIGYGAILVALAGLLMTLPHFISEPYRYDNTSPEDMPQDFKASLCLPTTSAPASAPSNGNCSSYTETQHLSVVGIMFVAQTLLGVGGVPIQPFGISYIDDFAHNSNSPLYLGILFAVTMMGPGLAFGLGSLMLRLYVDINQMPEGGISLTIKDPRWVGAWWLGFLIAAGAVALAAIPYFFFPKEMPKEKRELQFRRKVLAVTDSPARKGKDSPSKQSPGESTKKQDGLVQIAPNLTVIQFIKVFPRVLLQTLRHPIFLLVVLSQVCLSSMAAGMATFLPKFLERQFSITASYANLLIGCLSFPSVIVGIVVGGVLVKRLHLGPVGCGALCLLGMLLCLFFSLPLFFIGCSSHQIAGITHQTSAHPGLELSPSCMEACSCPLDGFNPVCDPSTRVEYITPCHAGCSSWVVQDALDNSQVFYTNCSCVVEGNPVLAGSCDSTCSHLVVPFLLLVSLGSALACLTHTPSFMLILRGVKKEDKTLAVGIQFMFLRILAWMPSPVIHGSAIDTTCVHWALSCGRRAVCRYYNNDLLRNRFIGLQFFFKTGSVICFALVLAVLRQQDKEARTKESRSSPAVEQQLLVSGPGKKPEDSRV
Method: as §9, §10, §11

OATP1B1 = target: T4, OATP1B1 (Homo sapiens, UniProt Q9Y6L6); assay: as above
T4 sequence (Q9Y6L6 1-691): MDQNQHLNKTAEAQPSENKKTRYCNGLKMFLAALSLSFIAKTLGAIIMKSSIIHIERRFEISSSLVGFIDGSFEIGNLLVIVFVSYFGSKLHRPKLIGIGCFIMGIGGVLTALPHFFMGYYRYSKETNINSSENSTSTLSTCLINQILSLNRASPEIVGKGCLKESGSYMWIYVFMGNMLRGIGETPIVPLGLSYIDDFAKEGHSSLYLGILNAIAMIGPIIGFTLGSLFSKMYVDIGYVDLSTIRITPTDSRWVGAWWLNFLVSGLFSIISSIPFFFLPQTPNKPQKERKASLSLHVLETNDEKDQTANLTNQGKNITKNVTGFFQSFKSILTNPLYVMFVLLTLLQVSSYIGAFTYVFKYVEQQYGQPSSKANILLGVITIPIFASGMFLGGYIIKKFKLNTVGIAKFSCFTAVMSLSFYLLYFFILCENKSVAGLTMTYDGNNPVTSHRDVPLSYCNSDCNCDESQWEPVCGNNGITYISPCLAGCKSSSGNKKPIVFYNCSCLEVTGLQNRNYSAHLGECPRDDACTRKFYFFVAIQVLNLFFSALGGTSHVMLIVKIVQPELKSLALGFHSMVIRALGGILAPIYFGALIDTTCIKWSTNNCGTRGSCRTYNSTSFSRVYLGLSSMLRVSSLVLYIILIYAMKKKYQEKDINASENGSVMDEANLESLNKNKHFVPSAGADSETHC
Method: as §9, §10, §11

OATP1B3 = target: T5, OATP1B3 (Homo sapiens, UniProt Q9NPD5); assay: as above
T5 sequence (Q9NPD5 1-702): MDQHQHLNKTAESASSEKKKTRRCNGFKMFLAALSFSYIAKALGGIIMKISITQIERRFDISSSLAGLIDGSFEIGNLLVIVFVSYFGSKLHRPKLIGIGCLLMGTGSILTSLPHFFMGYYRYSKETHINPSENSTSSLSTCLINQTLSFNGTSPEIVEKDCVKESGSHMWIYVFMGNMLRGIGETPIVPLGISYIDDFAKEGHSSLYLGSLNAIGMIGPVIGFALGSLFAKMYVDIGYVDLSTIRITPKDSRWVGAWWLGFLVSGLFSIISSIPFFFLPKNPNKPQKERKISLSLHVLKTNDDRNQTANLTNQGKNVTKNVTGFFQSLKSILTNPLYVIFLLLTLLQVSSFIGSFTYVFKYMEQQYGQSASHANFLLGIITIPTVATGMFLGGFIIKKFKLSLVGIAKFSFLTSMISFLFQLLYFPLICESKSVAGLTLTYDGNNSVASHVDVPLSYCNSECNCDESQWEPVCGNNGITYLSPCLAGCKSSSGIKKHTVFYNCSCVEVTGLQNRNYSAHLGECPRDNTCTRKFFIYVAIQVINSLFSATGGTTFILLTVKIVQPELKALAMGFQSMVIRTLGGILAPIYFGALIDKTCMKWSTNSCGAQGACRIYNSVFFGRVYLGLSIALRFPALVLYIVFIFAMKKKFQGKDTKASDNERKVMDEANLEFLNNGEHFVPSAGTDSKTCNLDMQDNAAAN
Method: as §9, §10, §11

Caco-2 cells = assay: In vitro permeability study using Caco-2 cell; conditions: Caco-2, 1 μM input, positive controls
[3] = Blood cell partitioning (blood to plasma ratio); assay type: in vitro ADME; conditions: fresh whole blood, 37 °C
Method: The blood to plasma ratio was determined using the method shown in supplemental information (Supplemental Methods). […] The blood cell partitioning was calculated as follows. […] Plasma, liver microsomes and hepatocyte binding by RED device The stability of the compounds in plasma, liver microsomes and hepatocyte were studied to ensure the reliability of the binding data. Hepatocyte was deactivated by leaving them on a bench for 2 days and going through a freeze thaw cycle thereafter.

[4] = Brain distribution by brain slices experiment; assay type: in vitro ADME, mouse; conditions: mouse brain slices, positive controls
Method: The unbound volume of distribution in the brain (V u, brain) was determined in fresh brain slices using the protocol published by Friden et al.[25].

CC[C@@]1(O)C(=O)OCc2c1cc1n(c2=O)Cc2cc3c(CN(C)C)c(O)ccc3nc2-1 [Topotecan]
Papp A→B at 2 μM (in vitro): 1.2 ± 0.09 ×10⁻⁶ cm/s | efflux ratio at 2 μM (in vitro): 4.6 ± 1.7

CC(C)NCC(O)COc1cccc2ccccc12 (stereo not drawn) [Propranolol, reference compound]
f u,plasma % [1]: 0.220 ± 0.0200% | f u,plasma % [2]: 6.50 ± 0.480% | Papp A→B at 1 μM (in vitro): 17 ± 1.3 ×10⁻⁶ cm/s

CCOc1ccc(NC(C)=O)cc1 [Phenacetin, reference compound]
hepatocyte CLint at 1 μM (Hepatocyte stability): 33 ± 8 µL/min/1e6 cells | phenacetin O-deethylation (CYP1A2 activity) (CYP1A2): 24.3 ± 3.25 pmol/min/106 cells

C[C@]12CC[C@@H]3c4ccc(OS(=O)(=O)O)cc4CC[C@H]3[C@@H]1CCC2=O [estrone-3-sulfate, reference compound]
uptake ratio of OATP1A2 (OATP1A2): 18 ± 3.7 | uptake ratio of OATP2B1 (OATP2B1): 13 ± 2.9

C[C@]12CC[C@@H]3c4ccc(O)cc4CC[C@H]3[C@@H]1CC[C@@H]2O[C@@H]1O[C@H](C(=O)O)[C@@H](O)[C@H](O)[C@H]1O [β-Estradiol 17-β-D-glucuronide, reference compound]
uptake ratio of OATP1B1 (OATP1B1): 45 ± 7.6 | uptake ratio of OATP1B3 (OATP1B3): 10 ± 3.0

COC(=O)c1ccccc1-c1c2ccc(=N)cc-2oc2cc(N)ccc12 [Rhodamine 123]
Papp A→B at 1 μM (in vitro): 0.73 ± 0.02 ×10⁻⁶ cm/s

C[C@H]1O[C@@H](O[C@H]2[C@@H](O)C[C@H](O[C@H]3[C@@H](O)C[C@H](O[C@H]4CC[C@@]5(C)[C@H](CC[C@@H]6[C@@H]5C[C@@H](O)[C@]5(C)[C@@H](C7=CC(=O)OC7)CC[C@]65O)C4)O[C@@H]3C)O[C@@H]2C)C[C@H](O)[C@@H]1O [Digoxin]
Papp A→B at 2 μM (in vitro): 3.5 ± 0.34 ×10⁻⁶ cm/s | efflux ratio at 2 μM (in vitro): 5 ± 1.5

O=C([O-])c1ccccc1-c1c2ccc(=O)cc-2oc2cc([O-])ccc12.[Na+].[Na+] [Sodium fluorescein]
Papp (A-B) (Caco-2 cells): 1.40 ± 0.260 (cm/s) × 10-6

NS(=O)(=O)c1cc(C2(O)NC(=O)c3ccccc32)ccc1Cl (stereo not drawn) [Chlorthalidone, reference compound]
blood plasma ratio at 1 h, 1 μM ([3]; human): 11 ± 3.2 | blood plasma ratio at 1 h, 1 μM ([3]; mouse): 6.2 ± 0.2

NCC1(CC(=O)O)CCCCC1 [Gabapentin, reference compound]
Unbound brain distribution (Vu, brain) [4]: 2.20 ± 1.00 mL/g brain
